Where two headings read alike, the source gives them in different places. Values belong to the molecule of their own block, whether it stands above or below them.
Tests used:
[1] = molecular target: T1, human β3 adrenergic receptor (Homo sapiens, UniProt P13945); experiment: β3AR-cAMP functional assay in CHO cells stably transfected with cloned β3-adrenergic receptor (LANCE); format: cell-based
T1 construct: stably transfected with the cloned β-adrenergic receptor (β1, β2 or β3); expressed in transfected cells; host or cells: Chinese hamster ovary (CHO) cells, stably transfected
T1 sequence (P13945 whole entry): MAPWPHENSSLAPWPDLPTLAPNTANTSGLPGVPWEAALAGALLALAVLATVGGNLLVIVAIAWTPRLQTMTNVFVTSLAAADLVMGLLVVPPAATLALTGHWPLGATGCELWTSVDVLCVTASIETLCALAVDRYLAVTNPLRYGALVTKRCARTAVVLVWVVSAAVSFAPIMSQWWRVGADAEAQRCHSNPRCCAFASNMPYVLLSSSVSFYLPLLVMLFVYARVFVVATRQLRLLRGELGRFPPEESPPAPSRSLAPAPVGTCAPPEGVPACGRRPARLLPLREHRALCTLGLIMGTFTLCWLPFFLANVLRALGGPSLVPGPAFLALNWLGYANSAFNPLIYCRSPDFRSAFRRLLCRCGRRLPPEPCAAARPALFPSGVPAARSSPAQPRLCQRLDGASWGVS
Method: Functional Assay: cAMP production in response to ligand is measured according to Barton, et al. (1991, Agonist-induced desensitization of D2 dopamine receptors in human Y-79 retinoblastoma cells. Mol. Pharmacol. […]) modified as follows. cAMP production is measured using a homogenous time-resolved fluorescence resonance energy transfer immunoassay (LANCE™, Perkin Elmer) according to the manufacture's instructions. Chinese hamster ovary (CHO) cells, stably transfected with the cloned β-adrenergic receptor (β1, β2 or β3) are harvested after 3 days of subculturing. Harvesting of cells is done with Enzyme-free Dissociation Media (Specialty Media). Cells are then counted and resuspended in assay buffer (Hank's Balanced salt solution supplemented with 5 mM HEPES, […]) containing a phosphodiesterase inhibitor (IBMX, 0.6 mM). The reaction is initiated by mixing 6,000 cells in 6 μL with 6 μL Alexa Fluor labeled cAMP antibody (LANCE™ kit) which is then added to an assay well containing 12 μL of compound (diluted in assay buffer to 2× final concentration). The reaction proceeds for 30 minutes at room temperature and is terminated by the addition of 24 ul detection buffer (LANCE™ kit). The assay plate is then incubated for 1 hour at room temperature and time-resolved fluorescence measured on a Perkin Elmer Envision reader or equivalent. The unknown cAMP level is determined by comparing fluorescence levels to a cAMP standard curve.
The non-selective, full agonist […] ligand isoproterenol is used at all three receptors to determine maximal stimulation. The human β3 adrenergic receptor (AR) selective ligand (S)—N-[4-[2-[[2-hydroxy-3-(4-hydroxyphenoxy)propyl]amino]ethyl]-phenyl]-4-iodobenzenesulfonamide is used as a control in all assays. Isoproterenol is titrated at a final concentration in the assay of 10^−10 M to 10^−5 M and the selective ligand (S)—N-[4-[2-[[2-hydroxy-3-(4-hydroxyphenoxy)propyl]amino]ethyl]phenyl]-4-iodobenzenesulfonamide is titrated at the β3 receptor at concentration of 10^−10 M to 10^−5 M. Unknown ligands are titrated at all 3 β-adrenergic receptor subtypes at a final concentration in the assay of 10^−10 M to 10^−5 M to determine the EC50. The EC50 is defined as the concentration of compound that gives 50% activation of its own maximum.

[2] = molecular target: T1, human β3 adrenergic receptor; experiment: as above; format: cell-based; settings: Table 1; determined with β3AR-cAMP assay, given as ranges; read-out: Human β3 Binding
[3] = molecular target: T2, β3AR (Rattus norvegicus, UniProt P26255); settings: rats, intravenous administration, cited from earlier work
T2 construct: Following intravenous administration to rats; host or cells: live rats (endogenous receptor, bladder)
T2 sequence (P26255 whole entry): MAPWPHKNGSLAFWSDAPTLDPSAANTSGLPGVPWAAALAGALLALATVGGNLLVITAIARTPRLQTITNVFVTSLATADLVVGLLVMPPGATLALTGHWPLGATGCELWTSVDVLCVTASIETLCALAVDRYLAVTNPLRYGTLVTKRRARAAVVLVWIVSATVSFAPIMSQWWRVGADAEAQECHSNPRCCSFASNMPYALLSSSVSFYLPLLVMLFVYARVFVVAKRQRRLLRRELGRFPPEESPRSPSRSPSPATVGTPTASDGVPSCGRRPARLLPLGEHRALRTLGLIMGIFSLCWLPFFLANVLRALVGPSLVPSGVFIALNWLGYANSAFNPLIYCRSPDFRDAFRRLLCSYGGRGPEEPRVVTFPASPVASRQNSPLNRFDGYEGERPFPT

[4] = Table 2, Beta-3 agonist in vitro functional assay, given as ranges, read-out: Human β3 Agonist Functional Activity
[5] = cAMP production, CHO cells expressing human β3 AR, read-out: human β3 functional activity

EC50 [1, 4]: 11 to 100 nM
Compound: O=C(c1ccc(C[C@@H]2CC[C@H]([C@H](O)c3ccccc3)N2)cn1)N1C[C@@H]2[C@H](C1)[C@H]2c1nnco1 [Example 11, (R)-{(2R, 5S)-5-[(6-{[6-(1,3,4-oxadiazol-2-yl)-3-azabicyclo[3.1.0]hex-3-yl]carbonyl}pyridin-3-yl)methyl]pyrrolidin-2-yl)(phenyl)methanol]

EC50 [2]: 11 to 100 nM
Compound: O=C(Cc1nnc(-c2ccccc2)[nH]1)Nc1ccc(C[C@@H]2CC[C@H]([C@H](O)c3ccccc3)N2)cn1 [Example 4, N-[5-([(2S, 5R)-5-[(R)-hydroxy(phenyl)methyl]pyrrolidin-2-yl}methyl)pyridin-2-yl]-2-(5-phenyl-4H-1,2,4-triazol-3-yl)acetamide]

EC50 [2]: 11 to 100 nM
Compound: O=C(Nc1ccc(C[C@@H]2CC[C@H]([C@H](O)c3ccccc3)N2)cn1)C1CCc2nccc(=O)n21 (stereo partly drawn) [Example 2, N-[5-({(2S, 5R)-5-[(R)-hydroxy(phenyl)methyl]pyrrolidin-2-yl}methyl)pyridin-2-yl]-4-oxo-4,6,7,8-tetrahydropyrrolo[1,2-a]pyrimidine-6-carboxamide]

EC50 [1, 5]: 11 to 100 nM
Compound: O=C(c1ccc(C[C@@H]2CC[C@H]([C@H](O)c3ccccc3)N2)cn1)N1C[C@@H]2C(n3cnnn3)[C@@H]2C1 (stereo partly drawn) [Example 6, (R)-phenyl[(2R,5S)-5-[(6-{[(1R,5S,6S)-6-(1H-tetrazol-1-yl)-3-azabicyclo[3.1.0]hex-3yl]carbonyl}pyridin-3-yl)methyl]pyrrolidine-2-yl]methanol]

EC50 [1, 4]: 11 to 100 nM
Compound: O=C(c1ccc(C[C@@H]2CC[C@H]([C@H](O)c3ccccc3)N2)cn1)N1C[C@@H]2[C@H](C1)[C@H]2c1nnnn1CC(F)(F)F [Example 10]

EC50 [1, 5]: 101 to 1000 nM
Compound: O=C(c1ccc(C[C@@H]2CC[C@H]([C@H](O)c3ccccc3)N2)cn1)N1CCN(Cc2ccccn2)CC1 [Example 7, (R)-phenyl[(2R,5S)-5-[(6-{[4-(pyridin-2-ylmethyl)piperazin-1-yl]carbonyl}pyridin-3-yl)methyl]pyrrolidin-2-yl]methanol]

EC50 [1, 4]: 11 to 100 nM
Compound: CCc1nnc([C@H]2[C@@H]3CN(C(=O)c4ccc(C[C@@H]5CC[C@H]([C@H](O)c6ccccc6)N5)cn4)C[C@@H]32)o1 [Example 12, (R)-{(2R, 5S)-5-[(6-{[6-(5-ethyl-1,3,4-oxadiazol-2-yl)-3-azabicyclo[3.1.0]hex-3-yl]carbonyl}pyridin-3-yl)methyl]pyrrolidin-2-yl)(phenyl)methanol]

EC50 [2]: 101 to 1000 nM
Compound: O=C(Cn1ncccc1=O)Nc1ccc(C[C@@H]2CC[C@H]([C@H](O)c3ccccc3)N2)cn1 [Example 3, N-[5-({(2S, 5R)-5-[(R)-hydroxy(phenyl)methyl]pyrrolidin-2-yl}methyl)pyridin-2-yl]-2-(6-oxopyridazin-1(6H)-yl)acetamide]

EC50 [1, 4]: 11 to 100 nM
Compound: Cn1nnnc1[C@H]1[C@@H]2CN(C(=O)c3ccc(C[C@@H]4CC[C@H]([C@H](O)c5ccccc5)N4)cn3)C[C@@H]21 [Example 9, (R)-{(2R, 5S)-5-[(6-{[6-(1-methyl-1H-tetrazol-5-yl)-3-azabicyclo[3.1.0]hex-3-yl]carbonyl}pyridin-3-yl)methyl]pyrrolidin-2-yl)(phenyl)methanol]

EC50 [1, 4]: 11 to 100 nM
Compound: O=C(c1ccc(C[C@@H]2CC[C@H]([C@H](O)c3ccccc3)N2)cn1)N1CCN(Cc2nnn(CC(F)(F)F)n2)CC1 [Example 14, (R)-phenyl[(2R, 5S)-5-({6-[(4-{[2-(2,2,2-trifluoroethyl)-2H-tetrazol-5-yl]methyl}piperazin-1-yl)carbonyl]pyridin-3-yl}methyl)pyrrolidin-2-yl]methanol]

Compound: C[C@H](Cc1ccc2c(c1)OC(C(=O)[O-])(C(=O)[O-])O2)NC[C@H](O)c1cccc(Cl)c1.[Na+].[Na+] [CL316243]
bladder pressure [3]: reduces bladder pressure | bladder capacity (cystometric studies) ([3]; prolongation of micturition interval without increasing residual urine volume): increases bladder capacity

EC50 [1, 4]: 11 to 100 nM
Compound: O=C(c1ccc(C[C@@H]2CC[C@H]([C@H](O)c3ccccc3)N2)cn1)N1CCC2(CCOC2=O)CC1 [Example 8, 8-{[5-({(2S, 5R)-5-[(R)-hydroxy(phenyl)methyl]pyrrolidin-2-yl}methyl)pyridin-2-yl]carbonyl}-2-oxa-8-azaspiro[4.5]decan-1-one]

EC50 [1, 5]: 20.4 nM
Compound: O=C(Nc1ccc(C[C@@H]2CC[C@H]([C@H](O)c3ccccc3)N2)cn1)[C@@H]1CCc2scnc21 [Example 1]

EC50 [1, 5]: 101 to 1000 nM
Compound: O=C(c1ccc(C[C@@H]2CC[C@H]([C@H](O)c3ccccc3)N2)cn1)N1CCC(c2nnnn2CC(F)(F)F)CC1 [Example 5, (R)-Phenyl-(2R,5S)-5-{[6-({4-[1-(2,2,2-trifluoroethyl)-1H-tetrazol-5-yl]piperidin-1-yl}carbonyl-pyridin-3-yl]methyl}pyrrolidin-2-yl)methanol]

EC50 [1, 4]: < 10 nM
Compound: O=C(c1ccc(C[C@@H]2CC[C@H]([C@H](O)c3ccccc3)N2)cn1)N1C[C@@H]2[C@H](C1)[C@H]2c1nnc(-c2cnccn2)o1 [Example 13, (R)-phenyl{(2R, 5S)-5-[(6-{[6-(5-pyrazin-2-yl-1,3,4-oxadiazol-2-yl)-3-azabicyclo[3.1.0]hex-3-yl]carbonyl}pyridin-3-yl)methyl]pyrrolidin-2-yl)methanol]

From patent US9186354B2, “Pyrrolidine derived β3 adrenergic receptor agonists” (Merck Sharp & Dohme Corp., priority 2010, dated 2015)
